US20160279299A1, “SILK FIBROIN-BASED FLUID DELIVERY SYSTEMS AND DEVICES” (TRUSTEES OF TUFTS COLLEGE, priority 2013, published 2016)

System: fat grafts (human lipoaspirate)
Experiment: In-vivo murine model of adipose tissue reconstruction: lipoaspirate fat graft perfused via silk fibroin-based catheter and osmotic pump
Description: Female athymic nude mice were divided into 3 groups: animals treated with insulin (n=24), dexamethasone (n=15), or PBS vehicle (n=10). The groups were further subdivided into four different doses for insulin (e.g., ˜100 μg, ˜300 μg, ˜650 μg, or ˜1000 μg) or three different doses for dexamethasone (e.g., ˜1 mg/ml, ˜2 mg/ml, ˜3 mg/ml). Osmotic pumps that can deliver a fluid with a selected flow rate for a period of time were prepared with the insulin or dexamethasone solution or PBS vehicle. In this Example, ALZET 4-week osmotic pumps with a selected flow rate of ˜0.11 μl/hr were used. One end of the silk fibroin-based catheter was connected to the pump, e.g., using medical grade silicone (e.g., Dow Corning) (FIG. 8A). The silk catheter/pump construct was primed for 48 hours at 37° C., per manufacturer's instructions.
Lipoaspirate grafts were obtained from human subcutaneous abdominal fat during scheduled elective surgery and processed for injection under laboratory conditions. Lipoaspirate was loaded into ˜1 ml syringes in sterile fashion. Mice were anesthetized with 2% isoflurane in oxygen at the time of the procedure. Once the anesthetic plane was obtained, the animals were prepped for sterile surgery. Each animal received two bilateral ˜500 μl subcutaneous injections of lipoaspirate on the dorsal region, for example, through a 16G Coleman cannula using the fan-injection technique, which uniformly spreads the fat graft created beneath the cutaneous layer. For each animal, one of the two fat grafts received a silk fibroin-based catheter connected to an implantable osmotic pump. The silk catheter/pump was implanted subcutaneously through a small incision between the scapulae, and the fat graft was placed surrounding the silk fibroin-based catheter. The incision for the catheter/pump implantation was closed with a standard wound clip. To prevent and/or reduce pain and discomfort, mice were given subcutaneous injections of ˜5 mg/kg ketoprofen (Fort Dodge Animal Health, Fort Dodge, Iowa) immediately after the surgical procedure and every 24 hours as needed.
At 4 weeks post surgery, the mice were euthanized using carbon dioxide asphyxiation followed by cervical dislocation, and graft tissue was isolated from the bilateral dorsal injection sites. Explants were assessed for mass on a standard laboratory balance, and volume was measured using a gas pycnometer (Accupyc II 1340; Micrometrics, Atlanta, Ga.). Immediately after the dimensional analysis was complete, the tissue samples were fixed in 10% neutral buffered formalin and processed and embedded in paraffin.

C[C@@H]1C[C@H]2[C@@H]3CCC4=CC(=O)C=C[C@]4(C)[C@@]3(F)[C@@H](O)C[C@]2(C)[C@@]1(O)C(=O)CO [dexamethasone]
dose with the largest effect on fat graft volume (dexamethasone at ~0.11 μL/hr, 28 days post-implantation): ~2 mg/mL
adverse events during the therapy (mouse, in vivo): no adverse events

insulin
survival of animals (highest insulin groups, ~1000 μg and ~650 μg): generally died during the study period
group (dose) with the highest volume retention (insulin at ~0.11 μL/hr, 28 days post-implantation): ~300 µg
H&E: cellular response to the silk fibroin-based catheter (insulin doses, 28 days): little to no cellular response
deaths (insulin ~300 μg group): no deaths due to drug overdose
fat retention and adipogenesis (insulin ~300 μg group, 28 days): trend toward fat retention and adipogenesis
H&E: tissue around the silk fibroin-based catheter (insulin ~1000 μg dose, 28 days): a fibrous tissue was observed to surround the silk fibroin-based catheter
volume retention of fat grafts, statistical significance (insulin ~100, ~300, ~650, ~1000 μg at ~0.11 μL/hr, 28 days post-implantation, gas pycnometry): no statistical significance in volume retention
fat graft health / biocompatibility (insulin-treated mice, 4 weeks): no evidence of oil cysts or adverse biocompatibility reaction
